Measurements: PubChem BioAssay (NCI)
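Cultured in 96-well plates, cells were exposed to test compound for 48 hours across five concentrations. TGI: concentration producing complete growth inhibition.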

Assays:
Test in all cases: NCI tumour cell line growth inhibition, 48 h
[1] = system: 786-0 renal
[2] = system: ACHN renal
[3] = system: CAKI-1 renal
[4] = system: HCT-116 colon
[5] = system: K-562 leukemia
[6] = system: OVCAR-3 ovarian
[7] = system: SN12C renal
[8] = system: SNB-19 CNS
[9] = system: T-47D breast
[10] = system: UACC-62 melanoma

Structure (SMILES) | TGI [1] [µM] | TGI [2] [µM] | TGI [3] [µM] | TGI [4] [µM] | TGI [5] [µM] | TGI [6] [µM] | TGI [7] [µM] | TGI [8] [µM] | TGI [9] [µM] | TGI [10] [µM]
CC(C)(CO[C@H]1C[C@H]2CC[C@@]1(C)C2(C)C)[N+](=O)[O-] | 27.9 | > 100 | 60.3 | 29.1 | 35 | 56.5 | > 100 | 37.2 | 45.6 | 41.7
COC(=O)C1=C(CCCCO[Si](C)(C)C(C)(C)C)NC(=O)N2[C@H](CCOCc3ccccc3)CC[C@@H]12 | > 100 | > 100 | > 100 | > 100 | > 100 | > 100 | > 100 | > 100 | > 100 | > 100
O=C(O)CSC(CC(=O)c1ccc(Cl)cc1)c1ccc(Cl)cc1 (centres undefined) | > 100 | > 100 | > 100 | 59.7 | > 100 | 50 | > 100 | > 100 | 98.4 | > 100
Nc1[nH]c(=O)nc2c1ncn2C1OC(CO)C(O)C1O (centres undefined) | > 100 | > 100 | > 100 | > 100 | > 100 | > 100 | > 100 | > 100 | 70.3 | > 100
CCCCCC[C@H]([C@H](C)O)n1cnc2c(N)ncnc21 | > 100 | > 100 | > 100 | > 100 | > 100 | > 100 | > 100 | > 100 | > 100 | > 100
Cc1c(C)c2c(c(N)c1C#N)C(=O)N(N)C2=O | > 100 | > 100 | > 100 | > 100 | > 100 | > 100 | > 100 | > 100 | > 100 | > 100
C/C(=N\Nc1nc2ccccc2s1)c1ccncn1 | > 72.4 | 11.8 | 12.2 | 16.3 |  |  | 18 | > 28.4 | > 100 | > 26.5
Cc1ccccc1NC(=O)O/N=C(\Cl)C(C)C | 3.45 | 3.13 | 3.2 | 4.79 | 5.51 | 9.35 | 3.2 | 41.9 | 11.3 | 28.3
COc1cc2c(cc1O)C1Cc3ccc(OC)c(O)c3C[N+]1(C)CC2 (centres undefined) | > 100 | > 100 | > 100 | > 100 | > 100 |  | > 100 | > 100 | > 100 | > 100
C=C(C)C1CC(=O)C(C)=C(O)C1 (centres undefined) | > 100 | > 100 | > 100 | > 100 | > 100 |  | > 100 | > 100 | > 100 | > 100
COc1cc2c(/C=C3/C(=O)Nc4ccccc43)c(Cl)n(Cc3ccc(Cl)cc3)c2cc1C | 1.4 | 1.27 | 0.834 | 0.824 |  | 0.432 | 1.06 | 15.8 | 24.2 | 2.5
C=C1c2nc3ccccc3n2C=C(c2ccc(C)cc2)N1c1ccc(OC)cc1 | > 100 | > 100 | > 96.9 | > 100 | > 100 | > 100 | > 100 | > 100 | > 100 | > 100
N#CCCC(C=O)(CCC#N)CCC#N | > 100 | > 100 | > 100 | > 100 | > 100 | > 100 | > 100 | > 100 | > 100 | > 100
CCN(CC)C(=S)SC(C(=O)Nc1nnc(-c2ccc(Cl)cc2)o1)c1ccccc1 (centres undefined) | 39 | 26.3 | 51.8 | 13.5 | 42.4 | 10.2 | 38.2 | > 100 | 59.7 | 23.6
CCOC(=O)c1c(N)sc2c1C(C(=O)OCC)CCCC2 (centres undefined) | > 100 | > 100 |  | > 100 | > 100 |  | > 100 | > 100 | 78.3 | > 100
O=C(CNc1ccccc1C(=O)O)Nn1cnc2ccc(S(=O)(=O)Nc3ccccc3C(=O)O)cc2c1=O | > 100 | > 100 | > 100 | > 100 | > 100 | > 100 | > 100 | > 100 |  | > 100
Cc1nc(NC(C)(CO)CO)nc(N/N=C/c2ccc(Cl)cc2)c1C(=O)Nc1ccc(Cl)cc1 | > 100 | > 100 | > 100 | > 100 | > 100 | > 100 | > 100 | > 100 | > 100 | > 100
CN(CCCCCl)P(=O)(OCc1ccc([N+](=O)[O-])o1)OCC1OC(n2ccc(N)nc2=O)C(O)C1O (centres undefined) | > 100 | > 100 | > 100 | 25.9 | > 100 | 17.2 | 33.7 | 43.7 | 7.71 | 40.6
CCOP(=O)(/C=C/n1cc(C)c(=O)[nH]c1=O)OCC | > 100 | > 100 | > 100 | > 100 | > 100 | > 100 | > 100 | > 100 | > 100 | > 100
O=[N+]([O-])c1ccc(-n2nc3ccc4nonc4c3n2)cc1 | 89.4 | > 100 | 73.7 | > 100 | > 100 | > 100 | > 100 | > 100 | > 100 | > 100
N#Cc1c(-c2ccc([N+](=O)[O-])cc2)c(C#N)c(=O)n(NS(=O)(=O)c2ccccc2)c1S | > 100 | > 100 | > 100 | 39.8 | 77.4 |  | 34.9 | > 100 |  | 60.3
O=C1c2ccccc2-c2nc3ccncc3n21 | > 100 | > 100 | > 100 | > 100 | > 100 | > 100 | > 100 | > 100 |  | > 100
